Laboratory results published in ChEMBL document CHEMBL5154817, “Structure-activity relationship studies on O-alkylamino-tethered salicylamide derivatives with various amino acid linkers as potent anticancer agents” (Eur J Med Chem, 2022).
Activity calls are given as the source filed them. No cut-off for these calls is given here.

Legend:
MCF7 [1] = assay: Inhibition of colony formation in human MCF7 cells incubated for 2 weeks measured by crystal violet staining method; type: functional, cell-based; conditions: dose 1-10 µM, DDE = dose-dependent effect
MDA-MB-231 [2] = assay: Antiproliferative activity against human MDA-MB-231 cells assessed as inhibition of cell growth incubated for 72 hrs by MTT assay; type: functional, cell-based; conditions: MDA-MB-231, 72 h
MCF7 [3] = assay: Antiproliferative activity against human MCF7 cells assessed as inhibition of cell growth incubated for 72 hrs by MTT assay; type: functional, cell-based; conditions: MCF7, 72 h
MDA-MB-468 [4] = assay: Antiproliferative activity against human MDA-MB-468 cells assessed as inhibition of cell growth incubated for 72 hrs by MTT assay; type: functional, cell-based; conditions: MDA-MB-468, 72 h
T47D [5] = assay: Antiproliferative activity against human T47D cells assessed as inhibition of cell growth incubated fro 72 hrs by MTT assay; type: functional, cell-based
[6] = Cytotoxicity against human MCF-10A cells incubated for 72 hrs by MTT assay; type: toxicity, cell-based
MDA-MB-231 [7] = assay: Inhibition of colony formation in human MDA-MB-231 cells incubated for 2 weeks measured by crystal violet staining method; type: functional, cell-based; conditions: dose 0.1-3 µM, DDE = dose-dependent effect
MDA-MB-468 [8] = assay: Inhibition of colony formation in human MDA-MB-468 cells incubated for 2 weeks measured by crystal violet staining method; type: functional, cell-based; conditions: dose 0.5-7.5 µM, DDE = dose-dependent effect
T47D [9] = assay: Inhibition of colony formation in human T47D cells incubated for 2 weeks measured by crystal violet staining method; type: functional, cell-based; conditions: dose 0.5-7.5 µM, DDE = dose-dependent effect
[10] = biological target: Signal transducer and activator of transcription 3 (Homo sapiens) (UniProt P40763); assay: Inhibition of STAT3 in human MDA-MB-231 cells assessed as suppression of STAT3 phosphorylation incubated for 24 hrs by Western blotting analysis; type: cell-based; conditions: dose 1-10 µM, DDE = dose-dependent effect
Sequence of Signal transducer and activator of transcription 3 (Homo sapiens) (P40763 whole entry): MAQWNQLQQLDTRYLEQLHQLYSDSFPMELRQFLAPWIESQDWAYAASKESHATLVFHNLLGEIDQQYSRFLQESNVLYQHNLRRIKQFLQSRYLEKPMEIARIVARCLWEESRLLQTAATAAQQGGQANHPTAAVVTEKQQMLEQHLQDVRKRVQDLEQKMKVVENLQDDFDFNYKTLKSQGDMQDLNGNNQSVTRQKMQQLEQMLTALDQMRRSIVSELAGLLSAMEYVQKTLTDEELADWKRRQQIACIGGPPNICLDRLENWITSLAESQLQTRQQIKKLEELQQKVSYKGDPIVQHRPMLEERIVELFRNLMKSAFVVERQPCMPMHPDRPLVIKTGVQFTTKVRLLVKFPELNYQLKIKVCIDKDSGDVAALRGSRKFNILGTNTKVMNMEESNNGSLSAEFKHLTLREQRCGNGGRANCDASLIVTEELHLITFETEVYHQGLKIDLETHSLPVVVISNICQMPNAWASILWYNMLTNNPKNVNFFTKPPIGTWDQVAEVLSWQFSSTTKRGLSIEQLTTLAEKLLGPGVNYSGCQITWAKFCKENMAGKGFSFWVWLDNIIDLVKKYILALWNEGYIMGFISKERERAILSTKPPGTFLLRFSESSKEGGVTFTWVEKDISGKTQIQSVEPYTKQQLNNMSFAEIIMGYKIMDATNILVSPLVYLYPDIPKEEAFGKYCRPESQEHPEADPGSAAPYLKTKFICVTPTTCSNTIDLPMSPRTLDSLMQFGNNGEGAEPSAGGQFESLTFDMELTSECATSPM

MDA-MB-231 [11] = assay: Induction of apoptosis in human MDA-MB-231 cells assessed as activation of Bax at 1 to 10 uM incubated for 48 hrs by Western blotting analysis; type: functional, cell-based; conditions: dose 1-10 µM
MDA-MB-231 [12] = assay: Induction of apoptosis in human MDA-MB-231 cells assessed as increase in cleaved caspase-3 level at 1 to 10 uM incubated for 48 hrs by Western blotting analysis; type: functional, cell-based; conditions: dose 1-10 µM
MDA-MB-231 [13] = assay: Induction of apoptosis in human MDA-MB-231 cells assessed as increase in cleaved PARP level at 1 to 10 uM incubated for 48 hrs by Western blotting analysis; type: functional, cell-based; conditions: dose 1-10 µM
MDA-MB-231 [14] = assay: Induction of apoptosis in human MDA-MB-231 cells assessed as downregulation of Bcl-2 level at 1 to 10 uM incubated for 48 hrs by Western blotting analysis; type: functional, cell-based; conditions: dose 1-10 µM
MDA-MB-231 [15] = assay: Induction of apoptosis in human MDA-MB-231 cells assessed as viable cells at 1 uM incubated for 48 hrs by Annexin V staining based cell analyzer method (reference value: 92.55%); type: functional; conditions: read-out: Activity
MDA-MB-231 [16] = assay: Induction of apoptosis in human MDA-MB-231 cells assessed as early apoptotic cells at 1 uM incubated for 48 hrs by Annexin V staining based cell analyzer method (reference value: 2.6%); type: functional
MDA-MB-231 [17] = assay: Induction of apoptosis in human MDA-MB-231 cells assessed as late apoptotic cells at 1 uM incubated for 48 hrs by Annexin V staining based cell analyzer method (reference value: 4.45%); type: functional
MDA-MB-231 [18] = assay: Induction of apoptosis in human MDA-MB-231 cells assessed as necrotic cells at 1 uM incubated for 48 hrs by Annexin V staining based cell analyzer method (reference value: 0.4%); type: functional
MDA-MB-231 [19] = assay: Induction of apoptosis in human MDA-MB-231 cells assessed as viable cells at 5 uM incubated for 48 hrs by Annexin V staining based cell analyzer method (reference value: 92.55%); type: functional; conditions: read-out: Activity
MDA-MB-231 [20] = assay: Induction of apoptosis in human MDA-MB-231 cells assessed as early apoptotic cells at 5 uM incubated for 48 hrs by Annexin V staining based cell analyzer method (reference value: 2.6%); type: functional
MDA-MB-231 [21] = assay: Induction of apoptosis in human MDA-MB-231 cells assessed as late apoptotic cells at 5 uM incubated for 48 hrs by Annexin V staining based cell analyzer method (reference value: 4.45%); type: functional
MDA-MB-231 [22] = assay: Induction of apoptosis in human MDA-MB-231 cells assessed as necrotic cells at 5 uM incubated for 48 hrs by Annexin V staining based cell analyzer method (reference value: […]); type: functional
MDA-MB-231 [23] = assay: Induction of apoptosis in human MDA-MB-231 cells assessed as viable cells at 10 uM incubated for 48 hrs by Annexin V staining based cell analyzer method (reference value: 92.55%); type: functional; conditions: read-out: Activity
MDA-MB-231 [24] = assay: Induction of apoptosis in human MDA-MB-231 cells assessed as early apoptotic cells at 10 uM incubated for 48 hrs by Annexin V staining based cell analyzer method (reference value: 2.6%); type: functional
MDA-MB-231 [25] = assay: Induction of apoptosis in human MDA-MB-231 cells assessed as late apoptotic cells at 10 uM incubated for 48 hrs by Annexin V staining based cell analyzer method (reference value: 4.45%); type: functional
MDA-MB-231 [26] = assay: Induction of apoptosis in human MDA-MB-231 cells assessed as necrotic cells at 10 uM incubated for 48 hrs by Annexin V staining based cell analyzer method (reference value: 0.4%); type: functional
MDA-MB-231 [27] = assay: Antitumor activity against human MDA-MB-231 cells xenografted in nude mouse assessed as reduction in tumor volume at 10 mg/kg, ip measured every other day for 14 days; type: functional; conditions: MDA-MB-231, 336 h, time 14 day
[28] = Toxicity in nude mouse xenografted with human MDA-MB-231 cells assessed as loss of body weight at 7.5 to 10 mg/kg, ip measured daily for 14 days; type: organism-based; conditions: in vivo, 336 h, dose 7.5-10 mg/kg, time 14 day

With `CC(C)[C@H](NC(=O)c1cc(Cl)ccc1OCCNC(=O)OC(C)(C)C)C(=O)Nc1ccc([N+](=O)[O-])cc1Cl` the inhibition (MCF7 [1]) was “Dde”, the IC50 (MDA-MB-231 [2]) was 3.38 µM and the IC50 (MCF7 [3]) was 9.05 µM. For the same compound, the IC50 (MDA-MB-468 [4]) was 18.3 µM, the IC50 (T47D [5]) was 8.92 µM and the IC50 at 72 h [6] was over 60 µM. The inhibition (MDA-MB-231 [7]) was “Dde”, the inhibition (MDA-MB-468 [8]) was “Dde” and the inhibition (T47D [9]) was “Dde”. For the same compound, the inhibition [10] was “Dde”, the Activity (MDA-MB-231 [11]) was “Active” and the Activity (MDA-MB-231 [12]) was “Active”. The Activity (MDA-MB-231 [13]) was “Active”, the Activity (MDA-MB-231 [14]) was “Active” and the viability at 1 µM (MDA-MB-231 [15]) was 94.2%. The Activity (MDA-MB-231 [16]) was 2.85%, the Activity (MDA-MB-231 [17]) was 2.6% and the Activity (MDA-MB-231 [18]) was 0.3%. The viability at 5 µM (MDA-MB-231 [19]) was 78.8%, the Activity (MDA-MB-231 [20]) was 9.75% and the Activity (MDA-MB-231 [21]) was 10.9%. The Activity (MDA-MB-231 [22]) was 0.55%, the viability at 10 µM (MDA-MB-231 [23]) was 44.9% and the Activity (MDA-MB-231 [24]) was 17.85%. For the same compound, the Activity (MDA-MB-231 [25]) was 35.7%, the Activity (MDA-MB-231 [26]) was 1.6% and the inhibition in vivo at 10 mg/kg (MDA-MB-231 [27]) was 55%. For the same compound, the Activity [28] was “Non-Toxic”.
